In patent US12318452B2, “Degraders of WEE1 kinase” (DANA-FARBER CANCER INSTITUTE, INC., priority 2018, dated 2025):
Where “and” joins values, the source holds several entries; their conditions need not be identical. Identical values can stand only once.

Assays:
[1] = target: PLK1 (Homo sapiens, UniProt P53350); test: Z′-LYTE kinase activity assay for PLK1; format: biochemical; design: purchased Life Technologies (Invitrogen) commercial assay service; conditions: Km ATP, average of two replicates ± SD
Method: (§1) LanthaScreen™ assays were conducted for Wee1 in a 10-point dose response as performed in the commercial assay service by Life Technologies™. Z′-LYTE™ assays were conducted for PLK1 as performed in the commercial assay service by Life Technologies™ in a 10-point dose response using Km ATP concentrations.
The selectivity of Wee1 degradation was then assessed by performing multiplexed mass spectrometry (MS)-based proteomics in MOLT4 cells treated with 100 nM of compound 13 for 2 hours (Donovan et al., Elife 7:e38430 (2018)).

[2] = target: T1, Wee1 (Homo sapiens, UniProt P30291); test: LanthaScreen FRET-based biochemical binding assay for Wee1; conditions: LanthaScreen Binding activity assay; average of two replicates ± SD
Method: as §1

[3] = target: T1, Wee1; test: Wee1 degradation immunoblot in MOLT4 cells, 5-hr dose response and time course; format: cell-based; design: endogenous in cells; host or cells: MOLT4 (wild type; CRBN-/- as control); conditions: MOLT4 cells
Method: Whole cell lysates for immunoblotting were prepared by pelleting cells from each cell line at 4° C. (300 g) for 5 minutes. The resulting cell pellets were washed 1× with ice-cold PBS and then resuspended in RIPA lysis buffer (Sigma, cat #R0278) supplemented with protease and phosphatase inhibitor tablets (Roche cat #4906845001). Lysates were clarified at 14,000 rpm for 15 minutes at 4° C. prior to quantification by BCA assay (Pierce™, cat #23225). Whole cell lysates were loaded into Bolt 4-12% Bis-Tris Gels (Thermo Fisher, cat #NW04120BOX) and separated by electrophoreses at 95 V for 1.5 hours. The gels were transferred to a nitrocellulose membrane using the iBlot® Gel Transfer at P3 for 7 minutes (Thermo Fisher, cat #IB23001) and then blocked for 1 hour at room temperature in Odyssey® blocking buffer (LICOR® Biosciences, cat #927-50010). Membranes were probed using antibodies against the relevant proteins at 4° C. overnight in 20% Odyssey® Blocking Buffer in 1×TBST. Membranes were then washed three times with 1×TBST (at least 5 minutes per wash) followed by incubation with the IRDye® goat anti-mouse (LICOR®, cat #926-32210) or goat anti-rabbit (LICOR®, cat #926-32211) secondary antibody (diluted 1:10,000) in 20% Odyssey® Blocking Buffer in 1×TBST for 1 hour at room temperature. After three washes with 1×TBST (at least 5 minutes per wash), the immunoblots were visualized using the ODYSSEY® Infrared Imaging System (LICOR®).
MOLT4 cells were plated at 1.5 million cells per well in a 6-well plate, with 3 mL of media per well. Cells were then immediately treated with the indicated concentration of the indicated compound and incubated for the indicated amount of time. Cells were collected by transferring each well to a 15 mL conical, centrifuging (1000 rpm for 3 min), then washing the cell pellet 2× with cold PBS. Each cell pellet was then lysed in 100 μL of RIPA lysis buffer (+protease/phosphatase inhibitors). Samples were normalized and prepped in 4×LDS+10% β-mercaptoethanol and boiled for 5 min at 95° C. Lysates were probed for specified proteins by western blotting using the Bolt® system (Life Technologies™)
To confirm that compound 13-mediated Wee1 degradation is CRBN dependent (FIG. 1D), Wee1 degradation profiles in parental versus CRBN^−/− MOLT4 cells were compared. In parental MOLT4 cells, compound 13 induced potent Wee1 degradation after 5 hours, with maximal degradation observed at 100 nM and a “hook effect” apparent at the top concentration of 10 μM, where compound 13:CRBN and compound 13-Wee1 binary complexes inhibit the formation of a productive ternary complex (Toure and Crews, Angew. Chem. 55:1966-1973 (2016)).
To evaluate the kinetics of Wee1 degradation, a time course study was performed in MOLT4 cells using 100 nM compound 13. Degradation occurred rapidly, with over 50% degradation achieved within 30 min, and complete degradation reached by 3 hr (FIG. 4C).

[4] = target: T1, Wee1; test: Cellular degradation of Wee1 by immunoblot, 6-hour treatment of MOLT4 cells; format: cell-based; design: endogenous in cells; host or cells: MOLT4 (wild type; CRBN-/- as control); conditions: MOLT-4, 1 μM, MOLT4 cells, approximated by immunoblot, read-out: Extent of Degradation of Wee1
Method: General Protocol: HT-29, MOLT4 wild type (WT) or CRBN^-/- cells were plated in a 6 well plate and treated for 6 hours with the indicated concentrations of the inventive compounds and control. HT-29 cells were cultured in McCoy's Media supplemented with 10% FBS and 1% Penicillin/Streptomycin. MOLT4 WT and CRBN^-/- cells were cultured in Roswell Park Memorial Institute (RPMI) medium supplemented with 10% FBS and 1% Penicillin/Streptomycin. Mycoplasma testing was performed every month and all lines were negative. Immunoblotting: Cells were washed with phosphate-buffered saline (PBS) and then lysed using radioimmunoprecipitation assay (RIPA) buffer supplemented with protease and phosphatase inhibitor cocktail (Roche) on ice for 15 minutes. The lysates were centrifuged at 14,000 rpm for 15 minutes at 4° C. and protein was quantified by bicinchoninic acid (BCA) assay (PierceTM). Primary antibodies used include: Wee1 ([…]) (Cell Signaling Technology®, 13084S), polo-like kinase 1 (PLK1) (Thermo Fisher Scientific, 37-7000), phosphor-cdc2 (Y15) (10A11) (Cell Signaling Technology®, […]), phospho-histone H3 ([…]) (Cell Signaling Technology®, […]), Ikaros ([…]) (Cell Signaling Technology®, 14859S), Aiolos ([…]) (Cell Signaling Technology®, 15103), casein kinase 1 alpha (Abcam®, 108296), β-actin (Cell Signaling Technology®, 8H10D10). FIG. 2A is an immunoblot showing that compound 13 degraded Wee1 after a 6-hour treatment in MOLT4 cells, and induced the downstream changes expected from Wee1 loss-including a decrease in phosphorylated cyclin-dependent kinase 1 (pCDK1) (Y15) and an increase in pH 3. […] Degradation of Wee1 by compound 13 was rescued in MOLT4 CRBN^-/- cells. MOLT4 WT and CRBN^-/- cells were plated in a 6-well plate at 2.25 million cells per well in 3 mL media (RPMI+10% FBS+1% Penn/Strep). After treatment with the indicated concentrations of candidate compounds, cells were incubated for 6 hours at 37° C. 5% CO2. To harvest, the cells were washed 1× with cold PBS, then collected by centrifugation. Cell pellets were lysed in RIPA buffer with protease and phosphatase inhibitors (Roche). Lysates were clarified by centrifugation, and protein concentrations were normalized using a BCA assay (Thermo ScientificTM). The samples were diluted with 4×LDS+10% β-mercaptoethanol, and were boiled at 95° C. for 5 minutes. Proteins of interest were then assessed by western blotting. […] The experimental protocol was the same as in Example 28.

T1 sequence (P30291 whole entry): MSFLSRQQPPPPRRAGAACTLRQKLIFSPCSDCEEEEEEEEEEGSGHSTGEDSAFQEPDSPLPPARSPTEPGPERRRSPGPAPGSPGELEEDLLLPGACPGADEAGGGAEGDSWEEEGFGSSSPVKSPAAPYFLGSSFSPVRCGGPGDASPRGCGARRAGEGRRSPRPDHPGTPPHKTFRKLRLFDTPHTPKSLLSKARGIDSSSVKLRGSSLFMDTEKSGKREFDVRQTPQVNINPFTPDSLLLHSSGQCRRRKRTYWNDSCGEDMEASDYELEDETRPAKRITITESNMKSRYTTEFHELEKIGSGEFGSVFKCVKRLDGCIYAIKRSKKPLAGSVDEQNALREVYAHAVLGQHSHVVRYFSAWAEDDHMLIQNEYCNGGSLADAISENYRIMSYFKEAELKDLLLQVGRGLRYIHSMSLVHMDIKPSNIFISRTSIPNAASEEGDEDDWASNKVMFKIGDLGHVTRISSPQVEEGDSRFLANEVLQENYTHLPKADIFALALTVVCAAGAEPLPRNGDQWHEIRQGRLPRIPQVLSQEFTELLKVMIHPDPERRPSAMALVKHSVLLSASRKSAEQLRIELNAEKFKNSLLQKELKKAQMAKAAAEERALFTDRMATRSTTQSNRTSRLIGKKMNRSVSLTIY
Chain of PLK1 (P53350 whole entry): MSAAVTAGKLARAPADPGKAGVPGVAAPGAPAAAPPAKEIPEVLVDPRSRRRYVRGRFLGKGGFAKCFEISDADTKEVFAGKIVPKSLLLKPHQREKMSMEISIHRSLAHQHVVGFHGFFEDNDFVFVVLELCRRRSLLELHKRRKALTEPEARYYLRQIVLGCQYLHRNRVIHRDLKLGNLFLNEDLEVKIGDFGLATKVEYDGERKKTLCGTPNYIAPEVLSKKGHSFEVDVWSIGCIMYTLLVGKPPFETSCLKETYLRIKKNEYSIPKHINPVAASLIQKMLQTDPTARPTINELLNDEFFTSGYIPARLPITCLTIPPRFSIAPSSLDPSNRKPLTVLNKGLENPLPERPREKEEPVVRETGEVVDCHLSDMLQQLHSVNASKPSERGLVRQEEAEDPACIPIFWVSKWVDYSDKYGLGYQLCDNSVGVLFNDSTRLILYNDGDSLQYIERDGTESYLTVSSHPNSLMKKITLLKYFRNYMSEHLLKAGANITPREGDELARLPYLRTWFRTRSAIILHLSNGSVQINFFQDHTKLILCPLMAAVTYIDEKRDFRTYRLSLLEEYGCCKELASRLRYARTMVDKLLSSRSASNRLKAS

| IC50 [1] [nM] | IC50 [2] | Concentration required to achieve maximal Wee1 degradation ([3]; 5-hr treatment) [µM] | percent Wee1 degradation at 1 µM [4] [%] | Wee1 degradation ([3]; 5-hr exposure, 100 nM-10 μM) | Concentration giving maximal (sufficient) Wee1 degradation ([3]; 5-hr treatment) [nM] | Compound |
| --- | --- | --- | --- | --- | --- | --- |
| 118 ± 6 | 1 to 10 nM and 7.28 nM | 1 | > 50 |  |  | C=CCn1c(=O)c2cnc(Nc3ccc(N4CCN(CCCNC(=O)CCOCCOCCNc5cccc6c5C(=O)N(C5CCC(=O)NC5=O)C6=O)CC4)cc3)nc2n1-c1cccc(C(C)(C)O)n1 (stereo not drawn) [Compound 7, N-(3-(4-(4-((2-allyl-1-(6-(2-hydroxypropan-2-yl)pyridin-2-yl)-3-oxo-2,3-dihydro-1H-pyrazolo[3,4-d]pyrimidin-6-yl)amino)phenyl)piperazin-1-yl)propyl)-3-(2-(2-((2-(2,6-dioxopiperidin-3-yl)-1,3-dioxoisoindolin-4-yl)amino)ethoxy)ethoxy)propanamide] |
| 23.6 ± 4 | 4.46 ± 0.95 nM |  | 25 to 50 | degraded Wee1 |  | C=CCn1c(=O)c2cnc(Nc3ccc(N4CCN(CCCCCCNc5cccc6c5C(=O)N(C5CCC(=O)NC5=O)C6=O)CC4)cc3)nc2n1-c1cccc(C(C)(C)O)n1 (stereo not drawn) [Compound 11, 4-((6-(4-(4-((2-allyl-1-(6-(2-hydroxypropan-2-yl)pyridin-2-yl)-3-oxo-2,3-dihydro-1H-pyrazolo[3,4-d]pyrimidin-6-yl)amino)phenyl)piperazin-1-yl)hexyl)amino)-2-(2,6-dioxopiperidin-3-yl)isoindoline-1,3-dione] |
| 285 ± 14 | 1 to 10 nM and 3.18 nM |  | > 50 |  | 100 | C=CCn1c(=O)c2cnc(Nc3ccc(N4CCN(CCOCCOCCOCCNc5cccc6c5C(=O)N(C5CCC(=O)NC5=O)C6=O)CC4)cc3)nc2n1-c1cccc(C(C)(C)O)n1 (stereo not drawn) [Compound 12, 4-((2-(2-(2-(2-(4-(4-((2-allyl-1-(6-(2-hydroxypropan-2-yl)pyridin-2-yl)-3-oxo-2,3-dihydro-1H-pyrazolo[3,4-d]pyrimidin-6-yl)amino)phenyl)piperazin-1-yl)ethoxy)ethoxy)ethoxy)ethyl)amino)-2-(2,6-dioxopiperidin-3-yl)isoindoline-1,3-dione] |
